Laboratory results: patent US8741934B2, “Inhibitors of ion channels” (Pfizer Limited, priority 2007, dated 2014)

These compounds were tested against T1, hSCN3A sodium channels (Homo sapiens, UniProt Q9NY46) (assay: hSCN3A electrophysiology, whole-cell patch-clamp or PatchXpress 7000, estimated IC-50 (Table B)). Details: estimated IC-50; hSCN3A cells, whole-cell patch-clamp or PatchXpress 7000; read-out: SCN3A EIC-50.
T1 construct: expressed in transfected cells
Format: cell-based
Method: Human Embryonic Kidney (HEK) cells were transfected with an hSCN3A construct using lipofectamine reagent (Invitrogen), using standard techniques. […] Clones were screened for expression using the whole-cell voltage-clamp technique.
HEK cells stably transfected with hSCN3A were maintained in DMEM medium supplemented with 10% heat-inactivated fetal bovine serum and 400 μg/ml G418 sulfate in an incubator at 37° C. with a humidified atmosphere of 10% CO2. […] For electrophysiological studies, cells were removed from the culture flask by brief trypsinization and replated at low density onto glass cover slips. Cells were typically used for electrophysiological experiments within 24 to 72 h after plating.
All recordings were made at room temperature (22-24° C.) using AXOPATCH 200B amplifiers and PCLAMP software (Axon Instruments, Burlingame, Calif.) or PatchXpress 7000 hardware and associated software (Axon Instruments, Burlingame, Calif.).
Current records were acquired at 20 to 50 KHz and filtered at 5 to 10 KHz.
HEK cells stably transfected with hSCN3A were viewed under Hoffman contrast optics and placed in front of an array of flow pipes emitting either control or compound-containing extracellular solutions. All compounds were dissolved in dimethyl sulfoxide to make 10 mM stock solutions, which were then diluted into extracellular solution to attain the final concentrations desired.
The voltage-dependence of inactivation was determined by applying a series of depolarizing prepulses (8 sec long in 10 mV increments) from a negative holding potential. The voltage was then immediately stepped to 0 mV to assess the magnitude of the sodium current. Currents elicited at 0 mV were plotted as a function of prepulse potential to allow estimation of the voltage midpoint of inactivation (V1/2). Cells were then voltage clamped at the empirically determined V1/2.
Compounds were tested for their ability to inhibit hSCN3A sodium channels by activating the channel with a 20 msec voltage step to 0 mV following an 8 second conditioning prepulse to the empirically determined V1/2 (Table B). Compound effect (% inhibition) was determined by difference in current amplitude before and after application of test compounds. […] Inhibition values <20% and >80% were excluded from the calculation.
In some cases electrophysiological assays were conducted with PatchXpress 7000 hardware and associated software (Molecular Devices Corp) (Table B). All assay buffers and solutions were identical to those used in conventional whole-cell voltage clamp experiments described above. hSCN3A cells were grown as above to 50%-80% confluency and harvested by trypsinization. Trypsinized cells were washed and resuspended in extracellular buffer at a concentration of 1×10^6 cells/ml. The onboard liquid handling facility of the PatchXpress was used for dispensing cells and application of test compounds. Determination of the voltage midpoint of inactivation was as described for conventional whole-cell recordings. Cells were then voltage-clamped to the empirically determined V1/2 and current was activated by a 20 msec voltage step to 0 mV.

T1 sequence (Q9NY46 whole entry): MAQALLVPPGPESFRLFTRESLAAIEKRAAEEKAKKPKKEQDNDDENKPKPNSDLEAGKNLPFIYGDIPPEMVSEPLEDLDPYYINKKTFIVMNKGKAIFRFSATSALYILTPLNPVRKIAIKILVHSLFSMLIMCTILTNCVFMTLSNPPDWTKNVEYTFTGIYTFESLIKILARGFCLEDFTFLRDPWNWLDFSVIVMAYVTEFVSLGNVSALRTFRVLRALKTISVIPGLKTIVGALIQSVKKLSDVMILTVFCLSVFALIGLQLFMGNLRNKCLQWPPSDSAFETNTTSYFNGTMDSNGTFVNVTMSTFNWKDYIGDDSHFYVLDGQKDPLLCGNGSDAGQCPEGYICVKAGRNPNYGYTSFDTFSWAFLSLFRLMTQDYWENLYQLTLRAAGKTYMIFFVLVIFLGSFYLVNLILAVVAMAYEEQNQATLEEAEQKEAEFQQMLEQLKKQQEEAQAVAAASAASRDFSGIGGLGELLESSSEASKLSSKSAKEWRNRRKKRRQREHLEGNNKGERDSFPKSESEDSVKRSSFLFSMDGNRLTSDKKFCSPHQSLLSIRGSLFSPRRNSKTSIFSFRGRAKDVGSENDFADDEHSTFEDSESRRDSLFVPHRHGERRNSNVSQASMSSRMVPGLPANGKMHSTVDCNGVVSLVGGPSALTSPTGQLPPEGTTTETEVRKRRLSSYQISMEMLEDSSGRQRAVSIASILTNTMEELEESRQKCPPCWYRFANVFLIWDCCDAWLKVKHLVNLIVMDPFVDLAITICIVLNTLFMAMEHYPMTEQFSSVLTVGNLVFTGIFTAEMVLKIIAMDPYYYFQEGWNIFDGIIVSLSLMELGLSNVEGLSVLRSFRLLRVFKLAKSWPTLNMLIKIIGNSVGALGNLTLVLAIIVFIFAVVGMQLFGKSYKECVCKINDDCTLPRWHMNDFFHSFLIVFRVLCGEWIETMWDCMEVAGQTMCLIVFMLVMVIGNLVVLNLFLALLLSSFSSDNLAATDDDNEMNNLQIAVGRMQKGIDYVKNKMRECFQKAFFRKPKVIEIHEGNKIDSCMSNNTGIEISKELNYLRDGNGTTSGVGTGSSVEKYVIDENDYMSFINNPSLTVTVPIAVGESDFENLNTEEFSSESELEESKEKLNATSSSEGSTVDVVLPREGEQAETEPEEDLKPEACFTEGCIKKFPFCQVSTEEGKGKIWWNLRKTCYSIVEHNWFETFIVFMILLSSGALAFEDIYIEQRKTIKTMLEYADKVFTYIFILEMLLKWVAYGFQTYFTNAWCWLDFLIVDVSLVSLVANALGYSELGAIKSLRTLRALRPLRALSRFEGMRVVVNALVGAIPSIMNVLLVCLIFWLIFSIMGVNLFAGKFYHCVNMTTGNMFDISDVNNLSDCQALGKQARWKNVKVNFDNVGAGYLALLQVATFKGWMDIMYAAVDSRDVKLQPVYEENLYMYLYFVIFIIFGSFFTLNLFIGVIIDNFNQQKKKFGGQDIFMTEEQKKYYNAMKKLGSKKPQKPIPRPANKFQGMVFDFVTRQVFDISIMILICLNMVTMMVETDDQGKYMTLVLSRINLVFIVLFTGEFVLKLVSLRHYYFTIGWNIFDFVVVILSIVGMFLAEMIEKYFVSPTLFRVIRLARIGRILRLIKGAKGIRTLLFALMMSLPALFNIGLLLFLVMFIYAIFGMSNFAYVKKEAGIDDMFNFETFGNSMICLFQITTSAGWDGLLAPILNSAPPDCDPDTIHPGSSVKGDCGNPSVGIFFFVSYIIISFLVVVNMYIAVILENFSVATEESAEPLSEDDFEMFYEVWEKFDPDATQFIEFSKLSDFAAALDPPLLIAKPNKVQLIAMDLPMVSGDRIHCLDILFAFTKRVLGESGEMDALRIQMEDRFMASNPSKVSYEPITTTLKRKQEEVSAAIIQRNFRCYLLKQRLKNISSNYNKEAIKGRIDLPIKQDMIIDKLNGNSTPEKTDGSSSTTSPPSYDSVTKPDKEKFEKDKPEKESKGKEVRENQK

**Q.** With O=C(NCc1ccc(C(F)(F)F)cc1)c1ccc(S(=O)(=O)Nc2cscn2)cc1 [Example 13, 4-[(1,3-Thiazol-4-ylamino)sulfonyl]-N-[4-(trifluoromethyl)benyzyl]benzamide] as the compound, how does the IC50 read?
**A.** 680 nM

**Q.** With O=C(NCc1ccc(C(F)(F)F)cc1)c1ccc(S(=O)(=O)Nc2cncs2)cc1 [Example 14, 4-[(1,3-Thiazol-5-ylamino)sulfonyl]-N-[4-(trifluoromethyl)benzyl]benzamide] as the compound, how does the IC50 read?
**A.** 28100 nM

**Q.** For Cc1nc(NS(=O)(=O)c2ccc(C(=O)NCc3ccc(C(F)(F)F)cc3)cc2)cs1 [Example 15, 4-{[(2-Methyl-1,3-thiazol-4-yl)amino]sulfonyl}-N-[4-(trifluoromethyl)benzyl]benzamide], which IC50 is on record?
**A.** 31000 nM

**Q.** Which IC50 does the source give for Cc1ncc(NS(=O)(=O)c2ccc(C(=O)NCc3ccc(C(F)(F)F)cc3)cc2)s1 [Example 16, 4-{[(2-Methyl-1,3-thiazol-5-yl)amino]sulfonyl}-N-[4-(trifluoromethyl)benzyl]benzamide] here?
**A.** > 10000 nM

**Q.** COC(=O)c1csc(NS(=O)(=O)c2ccc(C(=O)NCc3ccc(C(F)(F)F)cc3)cc2)n1 [Example 17, Methyl 2-({[4-({[4-(trifluoromethyl)benzyl]amino}carbonyl)phenyl]sulfonyl}amino)-1,3-thiazole-4-carboxylate] was tested. Which IC50 did it give?
**A.** 2940 nM

**Q.** For Cc1cc(NS(=O)(=O)c2ccc(C(=O)NCc3ccc(C(F)(F)F)cc3)cc2)no1 [Example 18, 4-{[(5-Methylisoxazol-3-yl)amino]sulofnyl}-N-[4-(trifluoromethyl)benzyl]benzamide], which IC50 is on record?
**A.** 2260 nM

**Q.** CCc1nsc(NS(=O)(=O)c2ccc(C(=O)NCc3ccc(C(F)(F)F)cc3)cc2)n1 [Example 19, 4-{[(3-Ethyl-1,2,4-thiadiazol-5-yl)amino]sulfonyl}-N-[4-(trifluoromethyl)benzyl]benzamide] was tested. Which IC50 did it give?
**A.** 13800 nM

**Q.** With O=C(NCc1ccc(C(F)(F)F)cc1)c1ccc(S(=O)(=O)Nc2ncns2)cc1 [Example 20, 4-[(1,2,4-Thiadiazol-5-ylamino)sulfonyl]-N-[4-(trifluoromethyl)benzyl]benzamide] as the compound, how does the IC50 read?
**A.** 260 nM

**Q.** For O=C(NCc1ccc(C(F)(F)F)cc1)c1ccc(S(=O)(=O)Nc2nncs2)cc1 [Example 21, 4-[(1,3,4-Thiadiazol-2-ylamino)sulfonyl]-N-[4-(trifluoromethyl)benzyl]benzamide], which IC50 is on record?
**A.** 1970 nM

**Q.** Which IC50 does the source give for Cc1cnc(NS(=O)(=O)c2ccc(C(=O)NCc3ccc(C(F)(F)F)cc3)cc2)s1 [Example 22, 4-{[(5-methyl-1,3-thiazol-2-yl)amino]sulfonyl}-N-[4-(trifluoromethyl)benzyl] benzamide] here?
**A.** 950 nM

**Q.** Which IC50 does the source give for O=C(NCc1ccc(C(F)(F)F)cc1)c1ccc(S(=O)(=O)Nc2cnoc2)cc1 [Example 23, 4-[(Isoxazol-4-ylamino)sulfonyl]-N-[4-(trifluoromethyl)benzyl]benzamide] here?
**A.** 23300 nM

**Q.** O=C(NCc1ccc(C(F)(F)F)cc1)c1ccc(S(=O)(=O)Nc2ccn[nH]2)cc1 [Example 24, 4-[(1H-Pyrazol-5-ylamino)sulfonyl]-N-[4-(trifluoromethyl)benzyl]benzamide] was tested. Which IC50 did it give?
**A.** > 10000 nM

**Q.** With Cc1noc(C)c1NS(=O)(=O)c1ccc(C(=O)NCc2ccc(C(F)(F)F)cc2)cc1 [Example 26, 4-{[(3,5-Dimethylisoxazol-4-yl)amino]sulfonyl}-N-[4-(trifluoromethyl)benzyl]benzamide] as the compound, how does the IC50 read?
**A.** > 10000 nM

**Q.** With Cc1nn(C)c(C)c1NS(=O)(=O)c1ccc(C(=O)NCc2ccc(C(F)(F)F)cc2)cc1 [Example 27, N-[4-(Trifluoromethyl)benzyl]-4-{[(1,3,5-trimethyl-1H-pyrazol-4-yl)amino]sulfonyl}benzamide] as the compound, how does the IC50 read?
**A.** 23300 nM

**Q.** Which IC50 does the source give for O=C(NCc1cccc(C(F)(F)F)c1)c1ccc(S(=O)(=O)Nc2ncc(Cl)s2)cc1 [Example 28, 4-{[(5-Chloro-1,3-thiazol-2-yl)amino]sulfonyl}-N-[3-(trifluoromethyl)benzyl]benzamide] here?
**A.** 240 nM

**Q.** With O=C(NCc1cccc(OC(F)(F)F)c1)c1ccc(S(=O)(=O)Nc2ncc(Cl)s2)cc1 [Example 29, 4-{[(5-Chloro-1,3-thiazol-2-yl)amino]sulfonyl}-N-[3-(trifluoromethoxy)benzyl]benzamide] as the compound, how does the IC50 read?
**A.** 170 nM

**Q.** Which IC50 does the source give for O=C(NCc1ccc(C(F)(F)F)c(Cl)c1)c1ccc(S(=O)(=O)Nc2ncc(Cl)s2)cc1 [Example 30, 4-{[(5-Chloro-1,3-thiazol-2-yl)amino]sulfonyl}-N-[3-chloro-4-(trifluoromethyl)benzyl]benzamide] here?
**A.** 30 nM

**Q.** Which IC50 does the source give for O=C(NCc1ccc(C(F)(F)F)c(F)c1)c1ccc(S(=O)(=O)Nc2ncc(Cl)s2)cc1 [Example 31, 4-{[(5-Chloro-1,3-thiazol-2-yl)amino]sulfonyl}-N-[3-fluoro-4-(trifluoromethyl)benzyl]benzamide] here?
**A.** 70 nM

**Q.** O=C(NCc1ccc(F)c(OC(F)(F)F)c1)c1ccc(S(=O)(=O)Nc2ncc(Cl)s2)cc1 [Example 32, 4-{[(5-Chloro-1,3-thiazol-2-yl)amino]sulfonyl}-N-[4-fluoro-3-(trifluoromethoxy)benzyl]benzamide] was tested. Which IC50 did it give?
**A.** 70 nM

**Q.** With O=C(NCc1ccc(F)c(F)c1)c1ccc(S(=O)(=O)Nc2ncc(Cl)s2)cc1 [Example 33, 4-{[(5-Chloro-1,3-thiazol-2-yl)amino]sulfonyl}-N-(3,4-difluorobenzyl)benzamide] as the compound, how does the IC50 read?
**A.** 150 nM

**Q.** O=C(NCc1ccc(F)c(C(F)(F)F)c1)c1ccc(S(=O)(=O)Nc2ncc(Cl)s2)cc1 [Example 34, 4-{[(5-Chloro-1,3-thiazol-2-yl)amino]sulfonyl}-N-[4-fluoro-3-(trifluoromethyl)benzyl]benzamide] was tested. Which IC50 did it give?
**A.** 90 nM

**Q.** O=C(NCc1ccc(Cl)c(Cl)c1)c1ccc(S(=O)(=O)Nc2ncc(Cl)s2)cc1 [Example 35, 4-{[(5-Chloro-1,3-thiazol-2-yl)amino]sulfonyl}-N-(3,4-dichlorobenzyl)benzamide] was tested. Which IC50 did it give?
**A.** 40 nM

**Q.** For O=C(NCc1ccc(F)c(Cl)c1)c1ccc(S(=O)(=O)Nc2ncc(Cl)s2)cc1 [Example 36, N-(3-Chloro-4-fluorobenzyl)-4-{[(5-chloro-1,3-thiazol-2-yl)amino]sulfonyl}benzamide], which IC50 is on record?
**A.** 70 nM

**Q.** O=C(NCc1ccc(Cl)c(F)c1)c1ccc(S(=O)(=O)Nc2ncc(Cl)s2)cc1 [Example 37, N-(4-Chloro-3-fluorobenzyl)-4-{[(5-chloro-1,3-thiazol-2-yl)amino]sulfonyl}benzamide] was tested. Which IC50 did it give?
**A.** 70 nM

**Q.** O=C(NCc1ccc(OC(F)(F)F)c(F)c1)c1ccc(S(=O)(=O)Nc2ncc(Cl)s2)cc1 [Example 38] was tested. Which IC50 did it give?
**A.** 60 nM

**Q.** With O=C(NCc1ccc(C(F)(F)F)cc1F)c1ccc(S(=O)(=O)Nc2ncc(Cl)s2)cc1 [Example 39, 4-{[(5-Chloro-1,3-thiazol-2-yl)amino]sulfonyl}-N-[2-fluoro-4-(trifluoromethyl)benzyl]benzamide] as the compound, how does the IC50 read?
**A.** 120 nM

**Q.** How did the IC50 turn out when O=C(NCc1cccc(C(F)(F)F)c1F)c1ccc(S(=O)(=O)Nc2ncc(Cl)s2)cc1 [Example 40, 4-{[(5-Chloro-1,3-thiazol-2-yl)amino]sulfonyl}-N-[2-fluoro-3-(trifluoromethyl)benzyl]benzamide] was run?
**A.** 210 nM

**Q.** How did the IC50 turn out when CN(Cc1ccc(C(F)(F)F)cc1)C(=O)c1ccc(S(=O)(=O)Nc2ncc(Cl)s2)cc1 [Example 41, 4-{[(5-Chloro-1,3-thiazol-2-yl)amino]sulfonyl}-N-methyl-N-[4-(trifluoromethyl)benzyl]benzamide] was run?
**A.** 2350 nM

**Q.** How did the IC50 turn out when O=C(N[C@H]1C[C@@H]1c1ccccc1)c1ccc(S(=O)(=O)Nc2ncc(Cl)s2)cc1 [Example 42, 4-{[(5-Chloro-1,3-thiazol-2-yl)amino]sulfonyl}-N-[(1S,2R)-2-phenylcyclopropyl]benzamide] was run?
**A.** 510 nM

**Q.** For CN(Cc1ccc(F)cc1)C(=O)c1ccc(S(=O)(=O)Nc2ncc(Cl)s2)cc1 [Example 43, 4-{[(5-Chloro-1,3-thiazol-2-yl)amino]sulfonyl}-N-(4-fluorobenzyl)-N-methylbenzamide], which IC50 is on record?
**A.** 4830 nM

**Q.** How did the IC50 turn out when CC(NC(=O)c1ccc(S(=O)(=O)Nc2ncc(Cl)s2)cc1)c1ccc(C(F)(F)F)cc1 (centres unmarked) [Example 44, 4-{[(5-Chloro-1,3-thiazol-2-yl)amino]sulfonyl}-N-{1-[4-(trifluoromethyl)phenyl]ethyl}benzamide] was run?
**A.** 270 nM

**Q.** How did the IC50 turn out when O=C(NCc1ccc(OC(F)(F)F)cc1)c1ccc(S(=O)(=O)Nc2ncc(Cl)s2)cc1 [Example 45, 4-{[(5-Chloro-1,3-thiazol-2-yl)amino]sulfonyl}-N-[4-(trifluoromethoxy)benzyl]benzamide] was run?
**A.** 70 nM
